The values that follow come from US12202832B2, “Heterocyclic compounds having a calcium-sensing receptor antagonistic activity” (TAKEDA PHARMACEUTICAL COMPANY LIMITED, priority 2017, dated 2025).

The first assay deals with T1, human CaSR (Homo sapiens, UniProt P41180).
T1 construct: expressed in transfected cells; host or cells: CHO cells
T1 sequence (P41180 20-1078): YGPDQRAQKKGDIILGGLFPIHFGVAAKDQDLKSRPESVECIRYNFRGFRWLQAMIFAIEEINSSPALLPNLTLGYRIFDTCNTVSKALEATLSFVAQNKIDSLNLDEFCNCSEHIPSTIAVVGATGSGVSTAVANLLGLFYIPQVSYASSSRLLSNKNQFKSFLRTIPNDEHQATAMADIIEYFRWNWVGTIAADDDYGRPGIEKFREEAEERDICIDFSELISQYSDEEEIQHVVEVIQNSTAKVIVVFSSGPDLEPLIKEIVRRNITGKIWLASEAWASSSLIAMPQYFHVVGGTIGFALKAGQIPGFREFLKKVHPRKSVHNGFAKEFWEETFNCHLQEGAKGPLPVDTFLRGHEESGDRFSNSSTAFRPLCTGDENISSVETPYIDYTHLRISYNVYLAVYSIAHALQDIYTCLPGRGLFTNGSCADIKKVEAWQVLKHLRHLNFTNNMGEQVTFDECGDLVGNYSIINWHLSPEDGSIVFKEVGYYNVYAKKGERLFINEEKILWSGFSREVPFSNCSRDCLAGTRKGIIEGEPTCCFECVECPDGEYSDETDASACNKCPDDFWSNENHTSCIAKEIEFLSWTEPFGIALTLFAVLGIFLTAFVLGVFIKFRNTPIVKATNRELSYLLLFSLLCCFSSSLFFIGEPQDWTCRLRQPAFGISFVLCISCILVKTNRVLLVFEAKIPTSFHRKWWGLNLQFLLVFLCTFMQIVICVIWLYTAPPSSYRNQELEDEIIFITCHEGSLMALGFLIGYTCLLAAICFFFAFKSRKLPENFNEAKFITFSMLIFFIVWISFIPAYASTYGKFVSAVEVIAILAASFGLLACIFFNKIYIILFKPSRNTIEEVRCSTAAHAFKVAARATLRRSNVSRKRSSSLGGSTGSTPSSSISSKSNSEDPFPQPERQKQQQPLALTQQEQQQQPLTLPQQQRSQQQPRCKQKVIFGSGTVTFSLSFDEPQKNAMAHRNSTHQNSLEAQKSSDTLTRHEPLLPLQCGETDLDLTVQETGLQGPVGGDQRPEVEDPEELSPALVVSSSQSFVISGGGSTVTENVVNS
The experiment in a line: Human CaSR antagonist activity (NFAT-Luciferase reporter in CHO cells). The following applies: CHO, CaCl2 final 1.3 mM, 100% = reference antagonist at 10 μM, read-out: Inhibition rate (%) at 3.3 μM. Type of assay: cell-based. On the procedure: CaSR antagonist activity measurement was performed using Bright-Glo Luciferase assay system (Promega Corporation). CHO cells in which human CaSR and NFAT-Luciferase reporter gene were forcibly expressed were suspended in MEM alpha (Wako Pure Chemical Industries, Ltd.) containing 10% dialyzed serum (HyClone). The cells in suspension was seeded in 384-well white plate (Corning) at 10,000/20 μL/well, and cultured in an incubator of 37° C., 5% CO2 for one day. A diluent of Test compound was prepared with assay buffer (MEM alpha containing 10 mM HEPES (Life Technologies) and 10% dialysis serum). The diluent was added to the plate at 5 μL/well and allowed to stand at 37° C. for 10 minutes. Further, a diluent of 7.8 mM CaCl2 prepared with assay buffer (final concentration 1.3 mM) was added at 5 μl/well and allowed to stand in an incubator of 37° C., 5% CO2 for 2 hours. Bright-Glo reagents (Promega Corporation) were added at 10 μL/well, and the obtained mixture was stirred for 5 minutes, and then luminescence intensity was measured using Multi-label reader Envision (PerkinElmer, Inc.). The activity (%) of the test compound was calculated with the definitions in which the luminescence intensity when DMSO is added in place of the test compound is defined as 0% inhibition; and the luminescence intensity when (5R)—N-(1-ethyl-1-(4-ethylphenyl)propyl)-2,7,7-trimethyl-5-phenyl-4,5,6,7-tetrahydropyrazolo[1,5-a] Pyrimidine-3-carboxamide at final concentration of 10 μM is added is defined as 100% inhibition.
As to `CCc1ccc(C(CC)(NC(=O)c2cnn3c2N[C@@H](c2ccccc2)CC3(C)C)C(=O)N[C@@H](C)C(N)=O)cc1` (stereo partly drawn) [Example 2, (5R)-N-(1-(((2S)-1-Amino-1-oxopropan-2-yl)amino)-2-(4-ethylphenyl)-1-oxobutan-2-yl)-7,7-dimethyl-5-phenyl-4,5,6,7-tetrahydropyrazolo[1,5-a]pyrimidine-3-carboxamide], the inhibition at 3.3 µM was 102%.

Turning to `CCc1ccc([C@](CC)(NC(=O)c2c(C)nn3c2N[C@@H](c2ccccc2)CC3(C)C)C(=O)N[C@@H](C)C(N)=O)cc1` [Example 3, (5R)-N-((2S)-1-(((2S)-1-Amino-1-oxopropan-2-yl)amino)-2-(4-ethylphenyl)-1-oxobutan-2-yl)-2,7,7-trimethyl-5-phenyl-4,5,6,7-tetrahydropyrazolo[1,5-a]pyrimidine-3-carboxamide], the inhibition at 3.3 µM is 94%.

In the case of `CCc1ccc(C(C)(NC(=O)c2cnn3c2N[C@@H](c2ccccc2)CC3(C)C)C(=O)N[C@@H](CC(C)C)C(N)=O)cc1` (stereo partly drawn) [Example 9, (5R)-N-(1-(((2S)-1-Amino-4-methyl-1-oxopentan-2-yl)amino)-2-(4-ethylphenyl)-1-oxopropan-2-yl)-7,7-dimethyl-5-phenyl-4,5,6,7-tetrahydropyrazolo[1,5-a]pyrimidine-3-carboxamide], the inhibition at 3.3 µM was determined as 98%.

Regarding `CCc1ccc(C(CC)(NC(=O)c2cnn3c2N[C@@H](c2ccccc2)CC3(C)C)C(=O)N[C@H](C(N)=O)[C@@H](C)CC)cc1` (stereo partly drawn) [Example 10, (5R)-N-(1-(((2S,3S)-1-Amino-3-methyl-1-oxopentan-2-yl)amino)-2-(4-ethylphenyl)-1-oxobutan-2-yl)-7,7-dimethyl-5-phenyl-4,5,6,7-tetrahydropyrazolo[1,5-a]pyrimidine-3-carboxamide], the inhibition at 3.3 µM was 100%.

`CCc1ccc(C(CC)(NC(=O)c2cnn3c2N[C@@H](c2ccccc2)CC3(C)C)C(=O)N[C@@H](CC(C)C)C(N)=O)cc1` (stereo partly drawn) [Example 14, (5R)-N-(1-(((2S)-1-Amino-4-methyl-1-oxopentan-2-yl)amino)-2-(4-ethylphenyl)-1-oxobutan-2-yl)-7,7-dimethyl-5-phenyl-4,5,6,7-tetrahydropyrazolo[1,5-a]pyrimidine-3-carboxamide]: the inhibition at 3.3 µM stood at 98%.

In the case of `CCc1ccc(C(CC)(NC(=O)c2cnn3c2N[C@@H](c2ccccc2)CC3(C)C)C(=O)NCC(N)=O)cc1` (stereo partly drawn) [Example 17, (5R)-N-(1-((2-Amino-2-oxoethyl)amino)-2-(4-ethylphenyl)-1-oxobutan-2-yl)-7,7-dimethyl-5-phenyl-4,5,6,7-tetrahydropyrazolo[1,5-a]pyrimidine-3-carboxamide], the inhibition at 3.3 µM was 104%.

As to `CCc1ccc(C(CC)(NC(=O)c2cnn3c2N[C@@H](c2ccccc2)CC3(C)C)C(=O)N[C@@H](Cc2ccccc2)C(N)=O)cc1` (stereo partly drawn) [Example 18], the inhibition at 3.3 µM worked out at 101%.

For the compound `CCc1ccc(C(CC)(NC(=O)c2cnn3c2N[C@@H](c2ccccc2)CC3(C)C)C(=O)N[C@@H](CCCCN)C(N)=O)cc1` (stereo partly drawn) [Example 20, (5R)-N-(1-(((2S)-1,6-Diamino-1-oxohexan-2-yl)amino)-2-(4-ethylphenyl)-1-oxobutan-2-yl)-7,7-dimethyl-5-phenyl-4,5,6,7-tetrahydropyrazolo[1,5-a]pyrimidine-3-carboxamide], the inhibition at 3.3 µM is 101%.

As for `CCc1ccc([C@@](CC)(NC(=O)c2cnn3c2N[C@@H](c2ccccc2)CC3(C)C)C(=O)N[C@H](C(N)=O)[C@@H](C)O)cc1` [Example 21, (5R)-N-((2R)-1-(((2S,3R)-1-Amino-3-hydroxy-1-oxobutan-2-yl)amino)-2-(4-ethylphenyl)-1-oxobutan-2-yl)-7,7-dimethyl-5-phenyl-4,5,6,7-tetrahydropyrazolo[1,5-a]pyrimidine-3-carboxamide], the inhibition at 3.3 µM worked out at 103%.

On to `CCc1ccc(C(CC)(NC(=O)c2cnn3c2N[C@@H](c2ccccc2)CC3(C)C)C(=O)N[C@H](C)C(N)=O)cc1` (stereo partly drawn) [Example 22, (5R)-N-(1-(((2R)-1-Amino-1-oxopropan-2-yl)amino)-2-(4-ethylphenyl)-1-oxobutan-2-yl)-7,7-dimethyl-5-phenyl-4,5,6,7-tetrahydropyrazolo[1,5-a]pyrimidine-3-carboxamide], for which the inhibition at 3.3 µM was 106%.

`CCc1ccc(C(CC)(NC(=O)c2cnn3c2N[C@@H](c2ccccc2)CC3(C)C)C(=O)N[C@@H](CO)C(N)=O)cc1` (stereo partly drawn) [Example 23, (5R)-N-(1-(((2S)-1-Amino-3-hydroxy-1-oxopropan-2-yl)amino)-2-(4-ethylphenyl)-1-oxobutan-2-yl)-7,7-dimethyl-5-phenyl-4,5,6,7-tetrahydropyrazolo[1,5-a]pyrimidine-3-carboxamide]: the inhibition at 3.3 µM was 102%.

For `CCc1ccc(C(CC)(NC(=O)c2cnn3c2N[C@@H](c2ccccc2)CC3(C)C)C(=O)N[C@@H](CC(N)=O)C(N)=O)cc1` (stereo partly drawn) [Example 24], the inhibition at 3.3 µM stood at 102%.

In the case of `CCc1ccc(C(CC)(NC(=O)c2cnn3c2N[C@@H](c2ccccc2)CC3(C)C)C(N)=O)cc1` (stereo partly drawn) [Example 26, (5R)-N-(1-Amino-2-(4-ethylphenyl)-1-oxobutan-2-yl)-7,7-dimethyl-5-phenyl-4,5,6,7-tetrahydropyrazolo[1,5-a]pyrimidine-3-carboxamide], the inhibition at 3.3 µM was 106%.

`CCc1ccc(C(CC)(NC(=O)c2cnn3c2N[C@@H](c2ccccc2)CC3(C)C)C(=O)NC)cc1` (stereo partly drawn) [Example 29, (5R)-N-(2-(4-Ethylphenyl)-1-(methylamino)-1-oxobutan-2-yl)-7,7-dimethyl-5-phenyl-4,5,6,7-tetrahydropyrazolo[1,5-a]pyrimidine-3-carboxamide]: the inhibition at 3.3 µM was 103%.

On to `CCc1ccc(C(CC)(NC(=O)c2cnn3c2N[C@@H](c2ccccc2)CC3(C)C)C(=O)N(C)C)cc1` (stereo partly drawn) [Example 32, (5R)-N-(1-(Dimethylamino)-2-(4-ethylphenyl)-1-oxobutan-2-yl)-7,7-dimethyl-5-phenyl-4,5,6,7-tetrahydropyrazolo[1,5-a]pyrimidine-3-carboxamide], for which the inhibition at 3.3 µM came out at 102%.

The assay is the same for the next values; noted with them: CaCl2 final 1.3 mM, 100% = reference antagonist at 10 μM.
Regarding `CCc1ccc(C(CC)(NC(=O)c2cnn3c2N[C@@H](c2ccccc2)CC3(C)C)C(=O)N[C@@H](CC(C)C)C(N)=O)cc1` (stereo partly drawn) [Example 15, (5R)-N-(1-(((2S)-1-Amino-4-methyl-1-oxopentan-2-yl)amino)-2-(4-ethylphenyl)-1-oxobutan-2-yl)-7,7-dimethyl-5-phenyl-4,5,6,7-tetrahydropyrazolo[1,5-a]pyrimidine-3-carboxamide], the “Inhibition rate (%) at 3.3 μM” value is 101%.

In the case of `CCc1ccc(C(CC)(NC(=O)c2cnn3c2N[C@@H](c2ccccc2)CC3(C)C)C(=O)N[C@@H](CC(C)C)C(N)=O)cc1` (stereo partly drawn) [Example 16, (5R)-N-(1-(((2S)-1-Amino-4-methyl-1-oxopentan-2-yl)amino)-2-(4-ethylphenyl)-1-oxobutan-2-yl)-7,7-dimethyl-5-phenyl-4,5,6,7-tetrahydropyrazolo[1,5-a]pyrimidine-3-carboxamide], the “Inhibition rate (%) at 3.3 μM” value was found to be 105%.

Take `CCc1ccc(C(CC)(NC(=O)c2cnn3c2N[C@@H](c2ccccc2)CC3(C)C)C(=O)N(C)C)cc1` (stereo partly drawn) [Example 33, (5R)-N-(1-(Dimethylamino)-2-(4-ethylphenyl)-1-oxobutan-2-yl)-7,7-dimethyl-5-phenyl-4,5,6,7-tetrahydropyrazolo[1,5-a]pyrimidine-3-carboxamide]: the “Inhibition rate (%) at 3.3 μM” value was found to be 104%.

For orientation: inhibition means the change of the read-out against control, counted positive when it falls.
